Values of other authors as cited in patent publication US11090329B2, “Method and composition for treating gastro-esophageal disorders” (priority 2012, dated 2021).

Tested on: esophagitis caused by chemo-radiotherapy
Details: patients with advanced stage III non-small-cell lung cancer

Question: For `O=C(O[C@@H]1Cc2c(O)cc(O)cc2O[C@@H]1c1cc(O)c(O)c(O)c1)c1cc(O)c(O)c(O)c1` [EGCG, epigallocatechin gallate A], which “esophagitis caused by chemo-radiotherapy” value is on record?
Answer: The value was “reduce esophagitis”.
